Test results published in PubChem BioAssay (NCI).
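Tested at 5 concentrations; 48 h exposure; 96-well plates; endpoints linearly interpolated, else capped at highest concentration. Abbreviation: GI50, concentration required for 50% inhibition of growth. TGI: concentration producing complete growth inhibition.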

How the values were obtained:
Test in all cases: NCI-60 cell line screen, 48 h
NCI-H23 lung = system: NCI-H23 lung
NCI-H460 lung = system: NCI-H460 lung
NCI-H522 lung = system: NCI-H522 lung
NCI/ADR-RES ovarian = system: NCI/ADR-RES ovarian
OVCAR-3 ovarian = system: OVCAR-3 ovarian
OVCAR-4 ovarian = system: OVCAR-4 ovarian
OVCAR-5 ovarian = system: OVCAR-5 ovarian
OVCAR-8 ovarian = system: OVCAR-8 ovarian
PC-3 prostate = system: PC-3 prostate
RPMI-8226 leukemia = system: RPMI-8226 leukemia
SF-268 CNS = system: SF-268 CNS
SF-295 CNS = system: SF-295 CNS
SF-539 CNS = system: SF-539 CNS
SK-MEL-2 melanoma = system: SK-MEL-2 melanoma
SK-MEL-28 melanoma = system: SK-MEL-28 melanoma
SK-MEL-5 melanoma = system: SK-MEL-5 melanoma
SK-OV-3 ovarian = system: SK-OV-3 ovarian
SN12C renal = system: SN12C renal
SNB-19 CNS = system: SNB-19 CNS
SR leukemia = system: SR leukemia
SW-620 colon = system: SW-620 colon
T-47D breast = system: T-47D breast
TK-10 renal = system: TK-10 renal
U251 CNS = system: U251 CNS
UACC-257 melanoma = system: UACC-257 melanoma
UACC-62 melanoma = system: UACC-62 melanoma
UO-31 renal = system: UO-31 renal

COc1cc(/C(C#N)=C/c2nc3c(N4CCOCC4)nc(Cl)nc3n2C)cc(OC)c1OC
GI50 (NCI-H23 lung): < 10 nM
TGI (NCI-H23 lung): > 35400 nM
GI50 (NCI-H460 lung): < 10 nM
TGI (NCI-H460 lung): 5370 nM
GI50 (NCI-H522 lung): < 10 nM
TGI (NCI-H522 lung): 2880 nM
GI50 (NCI/ADR-RES ovarian): < 10 nM
TGI (NCI/ADR-RES ovarian): 5560 nM
GI50 (OVCAR-3 ovarian): < 10 nM
TGI (OVCAR-3 ovarian): < 10 nM
GI50 (OVCAR-4 ovarian): < 10 nM
TGI (OVCAR-4 ovarian): 41100 nM
GI50 (OVCAR-5 ovarian): < 10 nM
TGI (OVCAR-5 ovarian): > 100000 nM
GI50 (OVCAR-8 ovarian): < 10 nM
TGI (OVCAR-8 ovarian): 31300 nM
GI50 (PC-3 prostate): < 10 nM
TGI (PC-3 prostate): 7620 nM
GI50 (RPMI-8226 leukemia): < 10 nM
TGI (RPMI-8226 leukemia): 1880 nM
GI50 (SF-268 CNS): < 11.8 nM
TGI (SF-268 CNS): > 26800 nM
GI50 (SF-295 CNS): < 10 nM
TGI (SF-295 CNS): 1490 nM
GI50 (SF-539 CNS): < 10 nM
TGI (SF-539 CNS): < 10 nM
GI50 (SK-MEL-2 melanoma): < 14.4 nM
TGI (SK-MEL-2 melanoma): 62700 nM
GI50 (SK-MEL-28 melanoma): 1030 nM
TGI (SK-MEL-28 melanoma): > 64800 nM
GI50 (SK-MEL-5 melanoma): < 10 nM
TGI (SK-MEL-5 melanoma): 26.8 nM
GI50 (SK-OV-3 ovarian): < 10 nM
TGI (SK-OV-3 ovarian): 7270 nM
GI50 (SN12C renal): < 10 nM
TGI (SN12C renal): 22100 nM
GI50 (SNB-19 CNS): < 10 nM
TGI (SNB-19 CNS): > 100000 nM
GI50 (SR leukemia): < 10 nM
GI50 (SW-620 colon): < 10 nM
TGI (SW-620 colon): > 100000 nM
TGI (T-47D breast): 5630 nM
GI50 (TK-10 renal): 2910 nM
TGI (TK-10 renal): 17800 nM
GI50 (U251 CNS): < 10 nM
TGI (U251 CNS): > 32200 nM
GI50 (UACC-257 melanoma): 2450 nM
TGI (UACC-257 melanoma): > 55200 nM
GI50 (UACC-62 melanoma): < 10 nM
TGI (UACC-62 melanoma): 15500 nM
GI50 (UO-31 renal): < 10 nM
TGI (UO-31 renal): 5170 nM
